15 compounds from patent publication EP4692091A1, “CA[…], AND PHARMACEUTICAL COMPOSITION, PREPARATION METHOD THEREFOR AND USE THEREOF” (Changchun Genescience Pharmaceutical Co., Ltd., priority 2023, dated 2024) can be followed below.

Format in all cases: cell-based
For assay [1], the system named is NCI-N87. Kind of assay: Inhibition of proliferation of NCI-N87 cells by test compounds (CellTiter-Glo, 72 h). Conditions: NCI-N87, 72 h incubation. Here is the method: 3: Test method (1) Cell plating: first, tumor cells NCI-N87 were cultured using a corresponding culture medium, trypsinized, centrifuged, resuspended for counting, adjusted to an appropriate concentration, and then plated on a 384-well plate. (2) Co-incubation of the compounds and tumor cells: after the cells adhered to the wall, 100 nL of a diluted bioactive substance (test compound) was added to the cell culture plate using ECHO, the final concentration of DMSO in wells of the cell plate was 0.33%, and the incubation was performed in an incubator at 37°C with […] for 72 h. (3) After the incubation was complete, 30 µL of a CTG reagent (CelltiterGlo kit) was added to each well. The culture was oscillated on a fast oscillator for 2 min, centrifuged at 1,000 rpm for 1 min, and kept away from light at room temperature for 30 min. The chemiluminescence signal value was read using an Envision instrument. (4) Cell viability detection: IC50 was calculated using GraphPad Prism 8 software, and the IC50 of the compounds was obtained using the following nonlinear fitting formula (see Table 3) : 11. Y=Bottom+(Top-Bottom)/(1+10^((LogIC50-X)*HillSlope)) 12. […] Table 3 Antiproliferative activity of test compounds on cells NCI-N87
Background: ATP-based viability assays read luminescence as a measure of living cells.

The subject of assay [2] is MDA-MB-468. Kind of assay: Inhibition of proliferation of MDA-MB-468 cells by test compounds (CellTiter-Glo, 72 h). Conditions: MDA-MB-468, 72 h incubation. Here is the method:
3: Test method • (1) Cell plating: first, tumor cells MDA-MB-468 were cultured using a corresponding culture medium, trypsinized, centrifuged, resuspended for counting, adjusted to an appropriate concentration, and then plated on a 384-well plate. • (2) Co-incubation of the compounds and tumor cells: after the cells adhered to the wall, 100 nL of a diluted bioactive substance (test compound) was added to the cell culture plate using ECHO, the final concentration of DMSO in wells of the cell plate was 0.33%, and the incubation was performed in an incubator at 37°C with […] for 72 h. • (3) After the incubation was complete, 30 µL of a CTG reagent (CelltiterGlo kit) was added to each well. The culture was oscillated on a fast oscillator for 2 min, centrifuged at 1,000 rpm for 1 min, and kept away from light at room temperature for 30 min. The chemiluminescence signal value was read using an Envision instrument. • (4) Cell viability detection: IC50 was calculated using GraphPad Prism 8 software, and the IC50 of the compounds was obtained using the following nonlinear fitting formula (see Table 2): • 6. Y=Bottom+(Top-Bottom)/(1+10^((LogIC50-X)*HillSlope)) • 7. […] Table 2 Antiproliferative activity of test compounds on MDA-MB-468

Assay [3] deals with SK-BR-3. Kind of assay: Inhibition of proliferation of SK-BR-3 cells by compounds (CellTiter-Glo, 72 h). Conditions: SK-BR-3, 72 h incubation. Here is the method: 3: Test method (1) Cell plating: first, tumor cells SK-BR-3 were cultured using a corresponding culture medium, trypsinized, centrifuged, resuspended for counting, adjusted to an appropriate concentration, and then plated on a 384-well plate. (2) Co-incubation of the compounds and tumor cells: after the cells adhered to the wall, 100 nL of a diluted bioactive substance (test compound) was added to the cell culture plate using ECHO, the final concentration of DMSO in wells of the cell plate was 0.33%, and the incubation was performed in an incubator at 37°C with 5% CO2 for 72 h. (3) After the incubation was complete, 30 µL of a CTG reagent (CelltiterGlo kit) was added to each well. The culture was oscillated on a fast oscillator for 2 min, centrifuged at 1,000 rpm for 1 min, and kept away from light at room temperature for 30 min. The chemiluminescence signal value was read using an Envision instrument. (4) Cell viability detection: IC50 was calculated using GraphPad Prism 8 software, and the IC50 of the compounds was obtained using the following nonlinear fitting formula (see Table 1) : 1. Y=Bottom+(Top-Bottom)/(1+10^((LogIC50-X)*HillSlope)) 2. […] Table 1 Antiproliferative activity of test compounds on SK-BR-3

In general, IC50 refers to the midpoint of a concentration-inhibition curve. A low value points to higher potency. Consider `CC[C@@]1(O)C(=O)OCc2c1cc1n(c2=O)Cc2c-1nc1cc(F)c(C3CC3)c3c1c2C(NC(=O)[C@H]1C[C@@H](O)C1)CCC3` (single isomer, unassigned) [20-2], for which the IC50 in assay [1] was determined as 28 nM; in assay [2], 19.5 nM; in assay [3], 25 nM.
For `CC[C@@]1(O)C(=O)OCc2c1cc1n(c2=O)Cc2c-1nc1cc(F)c(C)c3c1c2C(NC(=O)[C@H]1C[C@@H](O)C1)CCO3` (single isomer, unassigned) [25-1] the same measures were 110 nM, 69 nM and 80 nM.
The like results for `CC[C@@]1(O)C(=O)OCc2c1cc1n(c2=O)Cc2c-1nc1cc(F)c(C)c3c1c2C(NC(=O)[C@H]1C[C@@H](O)C1)CCO3` (single isomer, unassigned) [25-2] were, in that order, 40 nM, 18 nM and 19 nM.
The like results for `CC[C@@]1(O)C(=O)OCc2c1cc1n(c2=O)Cc2c-1nc1cc(F)c(Br)c3c1c2C(NC(=O)C[C@@H](C)O)CC3` (stereo partly drawn) [3-1, (R)-N-((1S,9S)-4-bromo-9-ethyl-5-fluoro-9-hydroxy-10,13-dioxo-2,3,9,10,13,15-hexahydro-1H,12H-benzo[de]pyrano[3',4',6,7]indolizino[1,2-b]quinolin-1-yl)-3-hydroxybutanamide] were, in that order, 16 nM, 7.5 nM and 13 nM.
Turning to `CC[C@@]1(O)C(=O)OCc2c1cc1n(c2=O)Cc2c-1nc1cc(F)c(Br)c3c1c2C(NC(=O)C[C@@H](C)O)CC3` (stereo partly drawn) [3-2, (R)-N-((1R,9S)-4-bromo-9-ethyl-5-fluoro-9-hydroxy-10,13-dioxo-2,3,9,10,13,15-hexahydro-1H,12H-benzo[de]pyrano[3',4',6,7]indolizino[1,2-b]quinolin-1-yl)-3-hydroxybutanamide], the IC50 in assay [1] came to 16 nM; in assay [2] it was 12 nM; in assay [3], 15 nM.
For `CC[C@@]1(O)C(=O)OCc2c1cc1n(c2=O)Cc2c-1nc1cc(F)cc3c1c2C(NC(=O)C[C@@H](C)O)CC3` (stereo partly drawn) [4-2, (R)-N-((1R,9S)-9-ethyl-5-fluoro-9-hydroxy-10,13-dioxo-2,3,9,10,13,15-hexahydro-1H,12H-benzo[de]pyrano[3',4',6,7]indolizino[1,2-b]quinolin-1-yl)-3-hydroxybutanamide] the same measures were 22 nM, 13 nM and 14 nM.
Consider `CC[C@@]1(O)C(=O)OCc2c1cc1n(c2=O)Cc2c-1nc1cc(F)c(OC(F)F)c3c1c2C(NC(=O)C[C@@H](C)O)CC3` (stereo partly drawn) [5-1, (R)-N-((1S,9S)-4-(difluoromethoxy)-9-ethyl-5-fluoro-9-hydroxy-10,13-dioxo-2,3,9,10,13,15-hexahydro-1H,12H-benzo[de]pyrano[3',4',6,7]indolizino[1,2-b]quinolin-1-yl)-3-hydroxybutanamide], for which the values for the IC50 in assay [1], in assay [2] and in assay [3] were 14 nM, 6.7 nM and 20 nM, respectively.
As to `CC[C@@]1(O)C(=O)OCc2c1cc1n(c2=O)Cc2c-1nc1cc(F)c(OC(F)F)c3c1c2C(NC(=O)C[C@@H](C)O)CC3` (stereo partly drawn) [5-2, (R)-N-((1R,9S)-4-(difluoromethoxy)-9-ethyl-5-fluoro-9-hydroxy-10,13-dioxo-2,3,9,10,13,15-hexahydro-1H,12H-benzo[de]pyrano[3',4',6,7]indolizino[1,2-b]quinolin-1-yl)-3-hydroxybutanamide], the results for the IC50 in assay [1], in assay [2] and in assay [3] were 18 nM, 9.4 nM and 20 nM, respectively.
The like results for `CC[C@@]1(O)C(=O)OCc2c1cc1n(c2=O)Cc2c-1nc1cc(F)c(C)c3c1c2C(NC(=O)C[C@@H](C)O)CCC3` (stereo partly drawn) [6-1, (R)-N-((1S,10S)-10-ethyl-6-fluoro-10-hydroxy-5-methyl-11,14-dioxo-1,2,3,4,10,11,14,16-octahydro-13H-cyclohepta[3',4',6,7]indolizino[1,2-b]quinolin-1-yl)-3-hydroxybutanamide] were, in that order, 7.5 nM, 8.8 nM and 11 nM.
For `C=Cc1c(F)cc2nc3c(c4c2c1CCC4NC(=O)C[C@@H](C)O)Cn1c-3cc2c(c1=O)COC(=O)[C@]2(O)CC` (stereo partly drawn) [7-2, (R)-N-((1R,9S)-9-ethyl-5-fluoro-9-hydroxy-10,13-dioxo-4-vinyl-2,3,9,10,13,15-hexahydro-1H,12H-benzo[de]pyrano[3',4',6,7]indolizino[1,2-b]quinolin-1-yl)-3-hydroxybutanamide] the same measures were 4.9 nM, 4.4 nM and 7.6 nM.
On to `CC[C@@]1(O)C(=O)OCc2c1cc1n(c2=O)Cc2c-1nc1cc(F)c(OCC(F)(F)F)c3c1c2C(NC(=O)C[C@@H](C)O)CC3` (stereo partly drawn) [8-1, (R)-N-((1S,9S)-9-ethyl-5-fluoro-9-hydroxy-10,13-dioxo-4-(2,2,2-trifluoroethoxy)-2,3,9,10,13,15-hexahydro-1H,12H-benzo[de]pyrano[3',4',6,7]indolizino[1,2-b]quinolin-1-yl)-3-hydroxybutanamide], for which the IC50 worked out at 4.2 nM in assay [1], 13 nM in assay [2] and 44 nM in assay [3].
`CC[C@@]1(O)C(=O)OCc2c1cc1n(c2=O)Cc2c-1nc1cc(F)c(C)c3c1c2[C@H](NC(=O)C[C@@H](C)O)CCO3` [24-1, (R)-N-((1R,10S)-10-ethyl-6-fluoro-10-hydroxy-5-methyl-11,14-dioxo-2,3,10,11,14,16-hexahydro-1H,13H-oxepino[4,3,2-de]pyrano[3',4':6,7]indolizino[1,2-b]quinolin-1-yl)-3-hydroxybutanamide]: the IC50 in assay [1] (Homo sapiens, NCI-N87, 72 h) was 65 nM; in assay [2] (Homo sapiens, MDA-MB-468, 72 h) it was 38 nM; in assay [3] (Homo sapiens, SK-BR-3, 72 h) it was 47 nM.
The like results for `CC[C@@]1(O)C(=O)OCc2c1cc1n(c2=O)Cc2c-1nc1cc(F)c(C)c3c1c2[C@@H](NC(=O)C[C@@H](C)O)CCO3` [24-2, (R)-N-((1S,10S)-10-ethyl-6-fluoro-10-hydroxy-5-methyl-11,14-dioxo-2,3,10,11,14,16-hexahydro-1H,13H-oxepino[4,3,2-de]pyrano[3',4':6,7]indolizino[1,2-b]quinolin-1-yl)-3-hydroxybutanamide] were, in that order, 24 nM, 14 nM and 16 nM.
The like results for `CC[C@@]1(O)C(=O)OCc2c1cc1n(c2=O)Cc2c-1nc1cc(F)c(C)c3c1c2[C@@H](NC(=O)[C@H](O)C1CC1)CCO3` [35-1, (R)-2-cyclopropyl-N-((1S,10S)-10-ethyl-6-fluoro-10-hydroxy-5-methyl-11,14-dioxo-2,3,10,11,14,16-hexahydro-1H,13H-oxepino[4,3,2-de]pyrano[3',4':6,7]indolizino[1,2-b]quinolin-1-yl)-2-hydroxyacetamide] were, in that order, 14 nM, 12 nM and 16 nM.
As for `CC[C@@]1(O)C(=O)OCc2c1cc1n(c2=O)Cc2c-1nc1cc(F)c(C)c3c1c2[C@@H](NC(=O)[C@@H](O)C1CC1)CCO3` [35-2, (S)-2-cyclopropyl-N-((1S,10S)-10-ethyl-6-fluoro-10-hydroxy-5-methyl-11,14-dioxo-2,3,10,11,14,16-hexahydro-1H,13H-oxepino[4,3,2-de]pyrano[3',4':6,7]indolizino[1,2-b]quinolin-1-yl)-2-hydroxyacetamide], the IC50 in assay [1] (Homo sapiens, NCI-N87, 72 h) turned out to be 10 nM; in assay [2] (Homo sapiens, MDA-MB-468, 72 h), 9 nM; in assay [3] (Homo sapiens, SK-BR-3, 72 h), 9 nM.
